Data as given in patent US20210267203A1, “PESTICIDALLY ACTIVE AZOLE-AMIDE COMPOUNDS” (SYNGENTA PARTICIPATIONS AG, priority 2018, published 2021).

Legend:
Assay type in all cases: in vivo
[1] = tested on: Diabrotica Balteata (Corn Root Worm); assay: Example B1: Diabrotica balteata (corn root worm), maize sprouts sprayed, L2 larvae; details: 96 h, application rate 200 ppm, 4 days after infestation, read-out: effect in at least one of the two categories (mortality or growth inhibition)
Method in brief: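 Maize sprouts on agar sprayed with aqueous dilutions of 10,000 ppm DMSO stocks, dried, then infested with 6–10 L2 larvae per well. Mortality and growth inhibition scored against untreated samples 4 days after infestation; rates of 200 ppm.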

[2] = tested on: Euschistus heros (Neotropical Brown Stink Bug); assay: Example B2: Euschistus heros (neotropical brown stink bug), soybean leaves sprayed, N2 nymphs; details: 120 h, application rate 200 ppm, 5 days after infestation, read-out: effect in at least one of the two categories (mortality or growth inhibition)
Method in brief: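 Soybean leaves on agar sprayed with aqueous test solutions made from 10,000 ppm DMSO stocks, dried, then infested with N2 nymphs. Mortality and growth inhibition scored versus untreated samples 5 days after infestation; activity threshold at 200 ppm.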

[3] = tested on: Chilo suppressalis (Striped Rice Stemborer); assay: Example B4: Chilo suppressalis (striped rice stemborer), artificial diet, L2 larvae; details: 144 h, application rate 200 ppm, 6 days after infestation
Method in brief: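 L2 larvae (6-8 per well) placed on artificial diet treated with aqueous test solutions prepared from 10,000 ppm DMSO stocks, after drying. Mortality, anti-feeding and growth inhibition scored against untreated samples 6 days after infestation; control means at least one category exceeds untreated.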

[4] = tested on: Plutella xylostella (Diamond Back Moth); assay: Example B5: Plutella xylostella (diamond back moth), artificial diet, 24-well, eggs; details: 192 h, application rate 200 ppm, 8 days after infestation, read-out: effect in at least one of the two categories (mortality or growth inhibition)
Method in brief: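 Artificial diet in 24-well plates treated with aqueous dilutions of 10,000 ppm DMSO stocks, dried, then infested with Plutella eggs. Mortality and growth inhibition scored against untreated samples 8 days after infestation; activity rated at 200 ppm application rate.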

[5] = tested on: Myzus persicae (Green Peach Aphid); assay: Example B6: Myzus persicae (green peach aphid), feeding/contact activity; details: 144 h, application rate 200 ppm, 6 days after infestation
Description: Example B6: Myzus persicae (Green Peach Aphid):Feeding/Contact Activity
(§1) Sunflower leaf discs were placed onto agar in a 24-well microtiter plate and sprayed with aqueous test solutions prepared from 10,000 ppm DMSO stock solutions. After drying, the leaf discs were infested with an aphid population of mixed ages. The samples were assessed for mortality 6 days after infestation.

[6] = tested on: Myzus persicae (Green Peach Aphid); assay: Example B7: Myzus persicae (green peach aphid), systemic activity; details: 144 h, test rate 24 ppm, pea seedling roots in test solution, 6 days
Description: Example B7: Myzus persicae (Green Peach Aphid), Systemic Activity
Roots of pea seedlings infested with an aphid population of mixed ages were placed directly into aqueous test solutions prepared from 10,000 DMSO stock solutions. The samples were assessed for mortality 6 days after placing seedlings into test solutions.

[7] = tested on: Myzus persicae (Green Peach Aphid); assay: Example B8: Myzus persicae (green peach aphid), intrinsic activity; details: 120 h, test rate 12 ppm, sucrose solution, 24-well, 5 days after infestation
Method in brief: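 Compounds diluted from 10,000 ppm DMSO stock were mixed with sucrose solution under stretched Parafilm in a sachet feeding setup, with aphid-infested pea seedlings placed on the membrane. Mortality was scored 5 days after infestation.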

[8] = tested on: Spodoptera littoralis (Egyptian Cotton Leaf Worm); assay: Example B9: Spodoptera littoralis (Egyptian cotton leaf worm), cotton leaf discs sprayed, L1 larvae; details: foliar, 72 h, application rate 200 ppm, 3 days after infestation
Method in brief: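 Leaf discs on agar sprayed with aqueous dilutions from 10,000 ppm DMSO stock, dried, then infested with five L1 larvae. Mortality, anti-feeding and growth inhibition scored against untreated samples 3 days after infestation; control counted when any category exceeds untreated.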

[9] = tested on: Spodoptera littoralis (Egyptian Cotton Leaf Worm); assay: Example B10: Spodoptera littoralis (Egyptian cotton leaf worm), uptake by lettuce roots from agar, eggs; details: 144 h, test rate 12.5 ppm, lettuce root uptake, 6 days after infestation, read-out: effect in at least one of the three categories (mortality, anti-feeding, or growth inhibition)
Method in brief: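 Compound mixed into agar from a 10,000 ppm DMSO stock; lettuce grown on it for 7 days for root uptake. Cut leaves infested with Spodoptera eggs; mortality, anti-feedant effect and growth inhibition scored against untreated samples 6 days after infestation.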

[10] = tested on: Thrips tabaci (Onion Thrips); assay: Example B12: Thrips tabaci (onion thrips), feeding/contact activity; details: 144 h, application rate 200 ppm, mixed ages, 6 days after infestation
Description: Example B12: Thrips tabaci (Onion Thrips) Feeding/Contact Activity
as §1, with “on” for “onto”, “in” for “in a”, “plates” for “plate”, “drying” for “drying,”, “a thrips” for “an aphid”

[11] = tested on: Myzus persicae (Green Peach Aphid); assay: Example B13: activity against Myzus persicae (green peach aphid), 96-well sucrose solution; details: 120 h, application rate 50 ppm, 5 days after infestation
Method in brief: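 Compounds, from 10,000 ppm DMSO stocks, mixed into sucrose solution in wells under stretched Parafilm, with aphids placed on the membrane in an inverted feeding setup. Mortality scored 5 days after infestation.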

[12] = tested on: Plutella xylostella (Diamondback Moth); assay: Example B14: activity against Plutella xylostella (diamondback moth), 96-well artificial diet; details: 216 h, application rate 500 ppm, 9 days after infestation
Method in brief: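 Diet in 96-well plates was treated with aqueous dilutions of 10,000 ppm DMSO stocks, dried, and infested with 30 eggs per well via a netted lid; hatching L1 larvae fed on the diet. Mortality scored 9 days after infestation.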

[13] = tested on: Frankliniella occidentalis (Western Flower Thrips); assay: Example B3: Frankliniella occidentalis (western flower thrips), feeding/contact activity; details: 168 h, application rate 200 ppm, mixed ages, 7 days after infestation
Description: Example B3: Frankliniella occidentalis (Western Flower Thrips):Feeding/Contact Activity
Sunflower leaf discs were placed on agar in 24-well microtiter plates and sprayed with aqueous test solutions prepared from 10,000 DMSO stock solutions. After drying the leaf discs were infested with a Frankliniella population of mixed ages. The samples were assessed for mortality 7 days after infestation.

CC(c1ncnn1-c1ncccn1)N(CC1CC1)C(=O)c1cc([S+]([O-])C(F)(F)F)cc(C(F)(F)F)c1 (stereo not shown) [P26, N-(cyclopropylmethyl)-N-[1-(2-pyrimidin-2-yl-1,2,4-triazol-3-yl)ethyl]-3-(trifluoromethyl)-5-(trifluoromethylsulfinyl)benzamide]
≥ 80%: percent effect (mortality or growth inhibition) at 200 ppm [1] | percent effect (mortality or growth inhibition) at 200 ppm [2] | percent control (mortality, anti-feedant effect or growth inhibition) at 200 ppm [3] | percent effect (mortality or growth inhibition) at 200 ppm [4] | mortality at 200 ppm [5] | mortality at 24 ppm [6] | mortality at 12 ppm [7] | percent control (mortality, anti-feedant effect or growth inhibition) at 200 ppm [8] | percent effect (mortality, anti-feeding or growth inhibition) at 12.5 ppm [9] | mortality at 200 ppm [10] | mortality at 50 ppm [11] | mortality at 500 ppm [12]

CC(c1ncnn1-c1ncccn1)N(CC1CC1)C(=O)c1cc(C(F)(F)F)cc(C2(C#N)CC2)c1 (stereo not shown) [P46, 3-(1-cyanocyclopropyl)-N-(cyclopropylmethyl)-N-[1-(2-pyrimidin-2-yl-1,2,4-triazol-3-yl)ethyl]-5-(trifluoromethyl)benzamide]
≥ 80%: percent effect (mortality or growth inhibition) at 200 ppm [1] | percent effect (mortality or growth inhibition) at 200 ppm [2] | percent effect (mortality or growth inhibition) at 200 ppm [4] | mortality at 200 ppm [5] | mortality at 24 ppm [6] | mortality at 12 ppm [7] | percent control (mortality, anti-feedant effect or growth inhibition) at 200 ppm [8] | mortality at 200 ppm [10] | mortality at 50 ppm [11] | mortality at 500 ppm [12]

C[C@H](NC(=O)c1cc(C2CC2)cc(C(F)(F)F)c1)c1ncnn1-c1ncccn1 [P72, 3-cyclopropyl-N-[(1S)-1-(2-pyrimidin-2-yl-1,2,4-triazol-3-yl)ethyl]-5-(trifluoromethyl)benzamide]
≥ 80%: percent effect (mortality or growth inhibition) at 200 ppm [1] | percent effect (mortality or growth inhibition) at 200 ppm [2] | mortality at 200 ppm [13] | percent control (mortality, anti-feedant effect or growth inhibition) at 200 ppm [3] | percent effect (mortality or growth inhibition) at 200 ppm [4] | mortality at 200 ppm [5] | mortality at 12 ppm [7] | percent control (mortality, anti-feedant effect or growth inhibition) at 200 ppm [8]

Cc1nc(C(C)NC(=O)c2cc(C(F)(F)F)cc(C3(C#N)CC3)c2)n(-c2ncc(Br)cn2)n1 (stereo not shown) [P78, N-[1-[2-(5-bromopyrimidin-2-yl)-5-methyl-1,2,4-triazol-3-yl]ethyl]-3-(1-cyanocyclopropyl)-5-(trifluoromethyl)benzamide]
≥ 80%: percent effect (mortality or growth inhibition) at 200 ppm [1] | percent effect (mortality or growth inhibition) at 200 ppm [2] | mortality at 200 ppm [13] | percent control (mortality, anti-feedant effect or growth inhibition) at 200 ppm [3] | percent effect (mortality or growth inhibition) at 200 ppm [4] | mortality at 12 ppm [7] | percent control (mortality, anti-feedant effect or growth inhibition) at 200 ppm [8]

CC(c1ncnn1-c1ncccn1)N(CC1CC1)C(=O)c1cc(C(F)(F)F)cc(S(=O)(=O)C(F)(F)F)c1 (stereo not shown) [P89, N-(cyclopropylmethyl)-N-[1-(2-pyrimidin-2-yl-1,2,4-triazol-3-yl)ethyl]-3-(trifluoromethyl)-5-(trifluoromethylsulfonyl)benzamide]
≥ 80%: percent effect (mortality or growth inhibition) at 200 ppm [1] | percent effect (mortality or growth inhibition) at 200 ppm [2] | percent control (mortality, anti-feedant effect or growth inhibition) at 200 ppm [3] | percent effect (mortality or growth inhibition) at 200 ppm [4] | mortality at 200 ppm [5] | mortality at 24 ppm [6] | mortality at 12 ppm [7] | percent control (mortality, anti-feedant effect or growth inhibition) at 200 ppm [8] | percent effect (mortality, anti-feeding or growth inhibition) at 12.5 ppm [9] | mortality at 200 ppm [10] | mortality at 50 ppm [11] | mortality at 500 ppm [12]
